Consider two molecules from patent US11364218B2, “Method of treating or preventing mood disorders, mental disorders, and/or chronic fatigue syndrome” (priority 2016, dated 2022).

One assay has as its system mouse. Briefly: forced swimming test in mouse (antidepressant action). Conditions: for Immobile time average value / non-moving time: male ICR mice; for Immobile time average value: single forced oral dose 1 h before test (methocarbamol 200 mg/kg; etizolam 0.033 mg/kg), non-moving time in last 7 of 10 min, n=10; for non-moving time: single oral dose 1 h before test (methocarbamol 200 mg/kg; etizolam 0.033 mg/kg), last 7 of 10 min, medium control 230.8 seconds. The assay is classed as in vivo. The source says: The antidepressant action of a test substance may be evaluated using a “forced swimming method” in a mouse model.
The forced swimming test in mouse models is an animal experimental method for confirming the antidepressant activity proposed by Porsalt (Arch. Int, pharmacydn. 229.327-336 (1977)).
A mouse placed into a pool indicates either an active state or a non-moving state. Decreases in the non-moving state of the mouse is used as an index to confirm the antidepressant action of a pharmaceutical composition.
The pool used for forced swimming was a glass cylindrical container 30 cm in height and 16 cm in inner diameter filled at a water depth of 20 cm at 25° c.
One hour before the test, 10 mL/kg of the above prepared methocarbamol aqueous solution was administered to the mouse only once (200 mg/kg in methocarbamol conversion).
The administration route was a forced oral administration using an installed mice oral administration sonde made by FUCHIGAMI with a syringe for injection made by TERUMO.
After one hour of forced administration, the mouse was placed in the forced swimming pool described above and left for 10 minutes.
The first three minutes after entering were considered a conditioning period, and the mouse's non-moving time in the remaining 7 minutes was measured.
“Non-motion” was defined by the mouse not moving the anterior limb and the posterior limb, and by a state in which the upper side of the neck is lifted from the water surface and floats.
The “non-moving time” was the sum of “non-motion” time.
The test was repeated 10 times for each mouse, and an average value was calculated.
An etizolam aqueous solution was used in place of a methocarbamol aqueous solution. The same test as described above (1) was performed, but with the administration amount converted to etizolam usage at 0.0333 mg/kg.
Distilled water not containing a pharmaceutical was used in place of the methocarbamol aqueous solution in the same manner as described above (1).
The average non-moving time values of the medium control group (n=10), the examples, and comparative examples (n=10) were compared with each other.

A further assay has as its system depression patients. Put plainly: Test for administration to depression patients. The class given is in vivo, human. Here is the method:
Test for administration to depression patients (embodiment 1) A 500 mg bolaxin tablet (manufactured by Ying-Yuan chemical pharmaceutical co. ltd.) and 500 mg-containing (methocarbamol content 76% mass) were prepared. A subject suffering from depression for two or more years was selected. A pharmaceutical composition was administered to the patient three times a day, and the administration was continued for one week. The dose on the initial day was 3.0 to 4.5 g/day (converted to methocarbamol). After observing the patient's state, it was increased to 6.0 g/day (converted to methocarbamol). The regular drug in addition to the tested pharmaceutical composition was continuously taken, but drinking was prohibited during the test. After one week, a potential depression improvement effect before and after administration was evaluated. The evaluation investigated a significant difference in two-term judgment of two related groups. The evaluation was judged based on a declaration of whether the subjects felt an improvement in thinking, desires, and fatigue.

Where [1] appears, read: N=5 depression patients, bolaxin tablets three times a day for one week, 3.0 to 4.5 g/day increased to 6.0 g/day as methocarbamol.

With `CCc1cc2c(s1)-n1c(C)nnc1CN=C2c1ccccc1Cl` [Reagent E-1, Etizolam], in the assay with mouse, the “Immobile time average value” is 107.3 s and the non-moving time was 107.3 s.

On to `COc1ccccc1OCC(O)COC(N)=O` (centres unmarked) [Reagent M-1, Methocarbamol], for which, in the assay with mouse, the “Immobile time average value” is 157.7 s and the non-moving time was 157.7 s. Besides, the “antidepressant effect compared with etizolam group (forced swimming)” value in the assay with mouse (methocarbamol 200 mg/kg oral vs etizolam 0.033 mg/kg oral) is “essentially the same effect as the etizolam administration group”. Besides, in the assay on depression patients (setting [1]), the “Effective (subjects declaring improvement in thinking, desires and fatigue)” value worked out at 5 persons; the No effect was 0 persons. Further, in the assay with depression patients (depression patients, one week of administration), the depression treatment effect result is “beneficial depression treatment effect”.
